Experimental data published in patent US6232070A, “Pharmacological targeting of mRNA cap formation” (priority 1999, dated 2001).

Columns and labels:
vaccinia triphosphatase = vaccinia triphosphatase (Vaccinia virus, UniProt P04298); details: reported value; read-out: Km for ATP; cited from earlier work
LEF-4 = LEF-4 (Autographa californica nuclear polyhedrosis virus, UniProt P41477); details: reported value; read-out: Km for ATP; cited from earlier work
Hcm1p = target: T1, Hcm1p (Homo sapiens, UniProt O43148); assay: Cap methyltransferase activity of recombinant Hcm1p, methylation of cap-labeled poly(A); type: biochemical
T1 construct: Δ120 retained 50% of the activity of full-length Hcm1p; His-tag (histidine-rich leader segment, pET16b) (N); made in house; host or cells: Escherichia coli BL21(DE3)

Mce1(1-210)p = target: T2, Mce1(1-210)p (Mus musculus, UniProt O55236); details: at 0.5 mM divalent cation; 50 mM Tris buffer; cited from earlier work
T2 construct: The N-terminal portion of Mce1p from residues 1-210 is an autonomous RNA triphosphatase domain; made in house; host or cells: bacteria
T2 sequence (O55236 1-210): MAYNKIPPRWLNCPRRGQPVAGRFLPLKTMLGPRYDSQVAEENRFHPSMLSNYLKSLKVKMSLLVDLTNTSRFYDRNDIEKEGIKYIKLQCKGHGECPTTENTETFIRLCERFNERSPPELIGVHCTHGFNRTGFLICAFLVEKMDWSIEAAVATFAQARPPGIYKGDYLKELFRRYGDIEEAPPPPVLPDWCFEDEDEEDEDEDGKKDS

T1 sequence (O43148 whole entry): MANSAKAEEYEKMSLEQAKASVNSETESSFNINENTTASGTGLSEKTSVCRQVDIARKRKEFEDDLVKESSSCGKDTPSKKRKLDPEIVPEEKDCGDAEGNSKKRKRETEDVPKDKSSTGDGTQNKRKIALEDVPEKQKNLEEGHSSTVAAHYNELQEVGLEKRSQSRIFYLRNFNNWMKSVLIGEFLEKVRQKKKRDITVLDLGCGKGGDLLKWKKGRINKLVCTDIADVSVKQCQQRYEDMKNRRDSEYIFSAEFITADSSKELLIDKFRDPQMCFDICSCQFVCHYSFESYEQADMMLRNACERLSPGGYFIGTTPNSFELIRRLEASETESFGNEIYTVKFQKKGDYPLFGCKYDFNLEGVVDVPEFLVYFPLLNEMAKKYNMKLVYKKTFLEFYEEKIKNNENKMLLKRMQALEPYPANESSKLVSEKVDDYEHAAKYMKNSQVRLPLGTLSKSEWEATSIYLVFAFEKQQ
Sequence of LEF-4 (P41477 whole entry): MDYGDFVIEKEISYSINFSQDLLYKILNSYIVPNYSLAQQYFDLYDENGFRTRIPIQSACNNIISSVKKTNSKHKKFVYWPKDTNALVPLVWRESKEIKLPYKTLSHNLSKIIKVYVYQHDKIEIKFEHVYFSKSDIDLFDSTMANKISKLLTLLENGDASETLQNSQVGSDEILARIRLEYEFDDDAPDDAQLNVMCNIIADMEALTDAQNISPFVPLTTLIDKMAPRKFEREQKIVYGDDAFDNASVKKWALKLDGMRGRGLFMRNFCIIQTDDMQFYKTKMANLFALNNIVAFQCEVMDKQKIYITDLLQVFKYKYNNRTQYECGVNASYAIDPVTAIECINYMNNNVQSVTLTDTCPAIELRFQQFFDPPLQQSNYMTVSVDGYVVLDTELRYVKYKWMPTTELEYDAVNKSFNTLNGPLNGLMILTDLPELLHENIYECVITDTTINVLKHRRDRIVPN

## Nc1ncnc2c1ncn2[C@@H]1O[C@H](COP(=O)(O)OP(=O)(O)OP(=O)(O)O)[C@@H](O)[C@H]1O [ATP]
Vaccinia triphosphatase
  Km: 800 µM
LEF-4
  Km: 43 µM

## Nc1ncnc2c1ncn2[C@@H]1O[C@H](CSCC[C@H](N)C(=O)O)[C@@H](O)[C@H]1O [AdoHcy, S-adenosylhomocysteine]
Hcm1p; 500 μM AdoHcy plus 50 μM AdoMet (FIG. 9, lane 4)
  effect on cap methylation in the presence of AdoMet: partially inhibitory

## C[S+](CC[C@H](N)C(=O)O)C[C@H]1O[C@@H](n2cnc3c(N)ncnc32)[C@H](O)[C@@H]1O (stereo partly shown) [AdoMet, S-adenosylmethionine]
Hcm1p; read-out: AdoMet concentration giving half-maximal activity, cap methylation as a function of AdoMet concentration
  Km: ~25 µM

## [Cl-].[Cl-].[Mg+2] [MgCl2]
Mce1(1-210)p
  inhibition of RNA triphosphatase activity: 75%
Hcm1p; 1 mM magnesium
  reduction of methylation: an order of magnitude

## [Cl][Mn][Cl] [MnCl2]
Mce1(1-210)p
  inhibition of RNA triphosphatase activity: 75%
